Assay results from PMC9995496, “A screen for MeCP2-TBL1 interaction inhibitors using a luminescence-based assay” (Scientific Reports, 2023).
Where a name gives a salt, the structure may show the parent alone.

Each compound was assayed on PRKACA-PRKAR2A interaction (SmBiT-PRKACA / LgBiT-PRKAR2A), protein kinase A. Conditions: counter-screen for NanoLuc interference, 0.5 h, 20 µM, inhibitor, Inh (PKA).
Design: NanoLuc complementation counter-screen in cell extract, PRKACA with PRKAR2A, loss of luminescence, detects NanoLuc interference

Row | SMILES | Inh (PKA)
1 | NCCc1c[nH]cn1 [UM0119882:03, Histamine 2HCl] | 0.5416%
2 | O=C(c1ccccc1)c1ccc2n1CCC2C(=O)O (stereo not drawn) [UM0142262:01, Ketorolac tromethamine salt] | -1.185%
3 | Clc1ccc(Nc2nnc(Cc3ccncc3)c3ccccc23)cc1 [UM0127963:03, Vatalanib] | 29.07%
4 | NCC1(CC(=O)O)CCCCC1 [UM0118203:03, Gabapentin] | 0.7345%
5 | C[S+]([O-])c1ccc(-c2nc(-c3ccc(F)cc3)c(-c3ccncc3)[nH]2)cc1 (stereo not drawn) [UM0142194:01, SB 203580 hydrochloride] | 15.97%
6 | CN1CCc2nc(C(=O)N[C@@H]3C[C@@H](C(=O)N(C)C)CC[C@@H]3NC(=O)C(=O)Nc3ccc(Cl)cn3)sc2C1 [UM0141545:01, Edoxaban] | 0.988%
7 | CN(C)C/C=C/C(=O)Nc1cc2c(Nc3ccc(F)c(Cl)c3)ncnc2cc1O[C@H]1CCOC1 [UM0141512:02, Afatinib (BIBW2992)] | 5.289%

Same assay, conditions: counter-screen for NanoLuc interference; 0.5 h, 20 µM; inhibitor

Row | SMILES | Inh (PKA)
8 | CCCc1cc(=O)[nH]c(=S)[nH]1 [UM0132755:02, Propylthiouracil] | 1.031%
9 | COc1c(Cl)cc2c([nH]c3cnccc32)c1NC(=O)c1cccnc1C [UM0141589:01, MLN120B] | 5.314%
10 | CC(C)(C)NS(=O)(=O)c1cncc(-c2cc(F)c3nc(N)nn3c2)c1 [UM0141537:01, CZC24832] | 2.566%
11 | Cc1c(O)c(=O)ccn1C [UM0142352:01, Deferiprone] | 0.006466%
12 | COc1cc2nccc(Oc3ccc(NC(=O)NC4CC4)c(Cl)c3)c2cc1C(N)=O [UM0130973:02, Lenvatinib (E7080)] | 3.422%
13 | CN1C(=O)C(Cc2c[nH]c3ccccc23)NC1=S (stereo not drawn) [UM0141765:01, Necrostatin-1] | 5.445%
14 | CCCS(=O)(=O)Nc1ccc(F)c(C(=O)c2c[nH]c3ncc(Cl)cc23)c1F [UM0127949:04, PLX-4720] | 29.68%
15 | C[C@](N)(Cc1ccc(O)c(O)c1)C(=O)O [UM0118624:04, Methyldopa] | -0.4014%
16 | NC(=O)[C@@H](CCC(F)(F)F)N(Cc1ccc(-c2ncon2)cc1F)S(=O)(=O)c1ccc(Cl)cc1 [UM0141668:01, BMS-708163 (Avagacestat)] | 25.28%
17 | Cn1cc(-c2ccncc2)c(-c2ccc(OCc3ccc4ccccc4n3)cc2)n1 [UM0141784:01, PF-2545920] | 39.54%
18 | C[C@@H]1C[C@H]2[C@@H]3CCC4=CC(=O)C=C[C@]4(C)[C@@]3(F)[C@@H](O)C[C@]2(C)[C@@]1(O)C(=O)CO [UM0141456:01, Dexamethasone (DHAP)] | 0.4412%
19 | Nc1cccc2c1C(=O)N(C1CCC(=O)NC1=O)C2=O (stereo not drawn) [UM0141764:01, Pomalidomide (CC-4047)] | 2.798%
20 | CN(C)CCOC(C)(c1ccccc1)c1ccccn1 (stereo not drawn) [UM0142354:01, Doxylamine Succinate] | 1.104%
21 | COc1nccnc1NS(=O)(=O)c1ccc(NC(=O)/C=C/c2ccc([N+](=O)[O-])s2)cc1 [UM0142796:01, Necrosulfonamide] | 27.6%
22 | CN(C)Cc1ccc(-c2nc3cccc4c3n2CCNC4=O)cc1 [UM0141737:01, AG-14361] | 2.033%
23 | Cc1ccc(Nc2c(F)cccc2Cl)c(CC(=O)O)c1 [UM0142264:01, Lumiracoxib] | 7.46%
24 | C[C@H](NC(=O)c1sccc1OCc1ccc(Cl)cc1)c1ccccc1 [UM0142788:01, AS 1949490] | 58.85%
25 | Nc1nc(NC2CC2)c2ncn([C@H]3C=C[C@@H](CO)C3)c2n1 [UM0141511:01, Abacavir] | 2.063%
26 | CCCNC(=O)[C@H]1O[C@@H]1C(=O)N[C@H](C(=O)N1CCC[C@H]1C(=O)O)[C@@H](C)CC [UM0141432:01, CA 074] | -0.2737%
27 | C=C1/C(=C\C=C2/CCC[C@]3(C)[C@@H]([C@H](C)CCCC(C)C)CC[C@@H]23)C[C@@H](O)C[C@@H]1O [UM0142422:01, Alfacalcidol] | 10.76%
28 | CN1CCN(C2CCN(C(=O)Nc3cc(Oc4ccc(NC(=O)C5(C(=O)Nc6ccc(F)cc6)CC5)c(F)c4)ccn3)CC2)CC1 [UM0142258:01, Golvatinib (E7050)] | 5.292%

Row | SMILES | Inh (PKA)
29 | COc1cc2c(cc1-c1c(C)noc1C)ncc1[nH]c(=O)n([C@H](C)c3ccccn3)c12 [UM0142279:01, I-BET151 (GSK1210151A)] | 10.84%
30 | Clc1cccc(Cl)c1NC1=NCCN1 [UM0134172:02, Clonidine HCl] | 1.329%
31 | CC1(C)O[C@H]2CC(=O)OC[C@]23[C@H]2CC[C@@]4(C)[C@H](c5ccoc5)OC(=O)[C@H]5O[C@]54[C@]2(C)C(=O)C[C@@H]13 [UM0141579:01, Limonin] | 0.3774%
32 | CC(C)N(CCCNC(=O)Nc1ccc(C(C)(C)C)cc1)C[C@H]1O[C@@H](n2cc(Br)c3c(N)ncnc32)[C@H](O)[C@@H]1O [UM0141743:01, SGC 0946] | 3.83%
33 | O=C(NCc1ccncc1)C12CC3CC(C1)CC(c1ccc(Cl)cc1)(C3)C2 [UM0142183:01, ABC294640] | 8.98%
34 | Cc1cc(C)c(S(=O)(=O)n2cc(C)cc2C)c(C)c1 [UM0142646:01, HJC 0350] | 24.94%
35 | Nc1ncn([C@H]2C[C@H](O)[C@@H](CO)O2)c(=O)n1 [UM0128548:04, Decitabine (NSC127716, 5AZA-CdR)] | 0.991%
36 | C[C@]12CC[C@H](O)CC1=CC[C@@H]1[C@@H]2CC[C@]2(C)C(c3cccnc3)=CC[C@@H]12 [UM0141772:01, Abiraterone] | 5.429%
37 | CN(C)CCCn1cc(C2=C(c3c[nH]c4ccccc34)C(=O)NC2=O)c2ccccc21 [UM0127819:02, GF 109203X] | 67.69%
38 | Nc1nccc(Oc2ccc3c(C(=O)Nc4cccc(C(F)(F)F)c4)cccc3c2)n1 [UM0142802:01, BAW2881 (NVP-BAW2881)] | 7.673%
39 | Cc1c(Cl)cccc1S(=O)(=O)Nc1nc(CC(=O)N2CCN(C)CC2)cs1 [UM0142740:01, BVT 2733] | 1.989%
40 | COc1cc(F)c(C(C)C)cc1-c1ccc(C(F)(F)F)cc1CN1C(=O)O[C@H](c2cc(C(F)(F)F)cc(C(F)(F)F)c2)[C@@H]1C [UM0141816:01, Anacetrapib (MK-0859)] | -2.323%
41 | Cn1sc(=O)n(Cc2ccccc2)c1=O [UM0127856:02, TDZD-8] | 41.7%
42 | CC[N+](CC)(CC)CCOc1cccc(OCC[N+](CC)(CC)CC)c1OCC[N+](CC)(CC)CC [UM0118287:03, Gallamine Triethiodide] | 0.3342%
43 | Cn1cc(CNCC2CCN(c3ncc(C(=O)NO)cn3)CC2)c2ccccc21 [UM0141697:01, JNJ-26481585] | 2.58%
44 | Cc1cc(Nc2nc(N[C@@H](C)c3ncc(F)cn3)ncc2Cl)[nH]n1 [UM0136754:02, AZD1480] | 15.63%
45 | C#CCC(Cc1cnc2nc(N)nc(N)c2n1)c1ccc(C(=O)N[C@@H](CCC(=O)O)C(=O)O)cc1 (stereo partly drawn) [UM0141802:01, Pralatrexate] | 2.023%
46 | COc1ccc(C(Cl)=C(c2ccc(OC)cc2)c2ccc(OC)cc2)cc1 [UM0118083:03, Chlorotrianisene] | 17.63%
47 | CCCCCCCCc1ccc(CCC(N)(CO)CO)cc1 [UM0142081:01, Fingolimod (FTY720)] | 6.851%
48 | CN(C)CCCOc1ccc(-c2ccc3ncc4c(c3c2)n(C2CCOCC2)c(=O)n4C)cn1 [UM0142808:01, AZD0156] | -0.519%
